The results in this text go back to ChEMBL document CHEMBL3596163, “Discovery of imidazo[1,5-a]pyridines and -pyrimidines as potent and selective RORc inverse agonists” (Bioorg Med Chem Lett, 2015).

Experiment [1] has as its target T1, Peroxisome proliferator-activated receptor gamma (Homo sapiens, UniProt P37231).
T1 sequence (P37231 whole entry): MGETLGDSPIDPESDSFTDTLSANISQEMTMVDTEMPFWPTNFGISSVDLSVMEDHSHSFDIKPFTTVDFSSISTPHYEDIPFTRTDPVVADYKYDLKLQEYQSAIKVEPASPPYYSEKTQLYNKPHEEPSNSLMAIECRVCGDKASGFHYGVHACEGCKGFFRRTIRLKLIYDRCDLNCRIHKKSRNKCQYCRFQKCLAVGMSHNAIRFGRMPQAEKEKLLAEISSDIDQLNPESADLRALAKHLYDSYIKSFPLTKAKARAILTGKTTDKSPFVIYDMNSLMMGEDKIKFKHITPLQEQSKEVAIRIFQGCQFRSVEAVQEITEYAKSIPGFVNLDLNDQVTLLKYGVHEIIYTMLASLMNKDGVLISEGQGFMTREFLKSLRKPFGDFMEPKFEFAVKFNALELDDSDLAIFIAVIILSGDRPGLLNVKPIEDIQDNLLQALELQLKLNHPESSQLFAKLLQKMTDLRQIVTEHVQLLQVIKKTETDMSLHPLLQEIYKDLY
Briefly: Displacement of fluormone PPARgamma green from GST-tagged human PPARgamma-LBD after 2 hrs by fluorescence polarization assay.

Experiment [2] deals with T2, Nuclear receptor ROR-alpha (Homo sapiens, UniProt P35398).
T2 sequence (P35398 whole entry): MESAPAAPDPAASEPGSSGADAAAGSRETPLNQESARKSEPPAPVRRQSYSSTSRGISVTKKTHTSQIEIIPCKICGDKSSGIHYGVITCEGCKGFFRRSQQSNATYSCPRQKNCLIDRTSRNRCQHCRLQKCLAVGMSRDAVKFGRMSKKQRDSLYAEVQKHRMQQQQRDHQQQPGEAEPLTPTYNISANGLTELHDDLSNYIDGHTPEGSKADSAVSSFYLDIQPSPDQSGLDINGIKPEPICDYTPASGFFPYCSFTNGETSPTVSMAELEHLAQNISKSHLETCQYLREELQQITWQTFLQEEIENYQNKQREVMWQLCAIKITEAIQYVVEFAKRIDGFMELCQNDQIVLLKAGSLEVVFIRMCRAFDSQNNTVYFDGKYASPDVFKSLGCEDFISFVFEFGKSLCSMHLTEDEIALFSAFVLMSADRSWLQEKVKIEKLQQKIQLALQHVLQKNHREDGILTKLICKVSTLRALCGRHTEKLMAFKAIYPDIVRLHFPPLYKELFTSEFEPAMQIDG
Briefly: Inverse agonist activity at GAL4-fused human RORa expressed in HEK293T cells assessed as suppression of basal transcriptional activity after 20 hrs by dual-glo luciferase reporter gene assay. It is filed as cell-based, HEK-293T.

For experiment [3], the target named is T3, Bile acid receptor (Homo sapiens, UniProt Q96RI1).
T3 sequence (Q96RI1 whole entry): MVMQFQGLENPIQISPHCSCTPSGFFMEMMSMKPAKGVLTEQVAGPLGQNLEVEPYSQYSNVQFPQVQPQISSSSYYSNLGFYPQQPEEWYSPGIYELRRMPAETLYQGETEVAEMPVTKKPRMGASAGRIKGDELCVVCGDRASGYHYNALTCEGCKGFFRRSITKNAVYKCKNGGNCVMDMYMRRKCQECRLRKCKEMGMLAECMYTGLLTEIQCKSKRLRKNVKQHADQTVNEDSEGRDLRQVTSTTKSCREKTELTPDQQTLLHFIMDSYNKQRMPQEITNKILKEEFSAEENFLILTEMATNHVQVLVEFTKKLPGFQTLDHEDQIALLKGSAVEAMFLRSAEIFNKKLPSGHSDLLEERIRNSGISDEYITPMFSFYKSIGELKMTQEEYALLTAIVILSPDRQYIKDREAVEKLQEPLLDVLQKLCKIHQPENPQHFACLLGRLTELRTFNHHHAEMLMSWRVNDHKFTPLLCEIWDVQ
In words: Agonist activity at GAL4-fused human FXR expressed in HEK293T cells assessed as activation of basal transcriptional activity after 20 hrs by dual-glo luciferase reporter gene assay. The experiment is classed as cell-based, HEK-293T. For orientation: A reporter such as luciferase makes a cellular process visible.

Experiment [4] has as its target T4, Oxysterols receptor LXR-beta (Homo sapiens, UniProt P55055).
T4 sequence (P55055 whole entry): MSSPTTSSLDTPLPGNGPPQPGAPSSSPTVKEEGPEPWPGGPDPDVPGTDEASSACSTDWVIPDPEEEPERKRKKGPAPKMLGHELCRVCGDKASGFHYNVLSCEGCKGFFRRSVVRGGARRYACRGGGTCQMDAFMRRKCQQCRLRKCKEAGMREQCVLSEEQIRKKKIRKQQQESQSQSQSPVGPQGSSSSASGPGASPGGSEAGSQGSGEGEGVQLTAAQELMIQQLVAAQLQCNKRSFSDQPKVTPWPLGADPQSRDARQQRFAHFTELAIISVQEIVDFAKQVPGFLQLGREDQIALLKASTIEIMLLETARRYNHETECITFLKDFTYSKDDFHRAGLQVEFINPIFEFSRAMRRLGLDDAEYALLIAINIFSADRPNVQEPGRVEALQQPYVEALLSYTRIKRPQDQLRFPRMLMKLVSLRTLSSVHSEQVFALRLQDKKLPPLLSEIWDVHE
In words: Agonist activity at GAL4-fused human LXRbeta expressed in HEK293T cells assessed as activation of basal transcriptional activity after 20 hrs by dual-glo luciferase reporter gene assay. It is filed as cell-based, HEK-293T.

The target in experiment [5] is T5, Oxysterols receptor LXR-alpha (Homo sapiens) (UniProt Q13133).
T5 sequence (whole entry): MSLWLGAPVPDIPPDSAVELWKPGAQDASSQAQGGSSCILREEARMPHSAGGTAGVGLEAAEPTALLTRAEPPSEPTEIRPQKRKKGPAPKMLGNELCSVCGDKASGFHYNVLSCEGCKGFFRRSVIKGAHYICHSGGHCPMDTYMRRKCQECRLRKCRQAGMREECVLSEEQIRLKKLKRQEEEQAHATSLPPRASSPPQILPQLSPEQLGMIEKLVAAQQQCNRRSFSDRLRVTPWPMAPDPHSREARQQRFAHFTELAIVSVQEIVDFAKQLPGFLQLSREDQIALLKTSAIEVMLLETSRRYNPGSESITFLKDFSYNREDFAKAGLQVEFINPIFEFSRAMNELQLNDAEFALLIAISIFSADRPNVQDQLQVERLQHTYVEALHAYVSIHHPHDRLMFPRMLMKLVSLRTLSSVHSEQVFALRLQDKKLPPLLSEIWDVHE
In words: Antagonist activity at GAL4-fused human LXRalpha expressed in HEK293T cells assessed as inhibition of T0901317-induced basal transcriptional activity up to 10 uM after 20 hrs by dual-glo luciferase reporter gene assay. The experiment is classed as cell-based. As to conditions: HEK-293T.

Active and inactive are the calls of the source. The rule behind the calls is not given here.

The IC50 is the midpoint of a concentration-inhibition curve. As a reminder, the EC50 is the concentration needed to bring the measured effect to its halfway point. In experiment [1], `O=C(O)c1ccc(-c2nc(C(=O)c3c(Cl)cccc3C3CC3)n3cccnc23)cc1O` returned a half-inhibitory concentration (IC50) of 3.4 µM. Further, the half-maximal effective concentration (EC50) in experiment [2], in experiment [3] and in experiment [4] was > 10 µM throughout. Also, the inhibition result in experiment [5] is “inactive”.
Consider `O=C(O)c1ccc(-c2nc(C(=O)c3c(Cl)cccc3C(F)(F)F)n3ccccc23)cc1`, for which the EC50 in experiment [2], in experiment [3] and in experiment [4] was > 10 µM throughout. Further, the inhibition result in experiment [5] is “inactive”.
With `O=C(O)c1ccc(-c2nc(C(=O)c3c(Cl)cccc3C(F)(F)F)n3ccccc23)cc1O`, the IC50 in experiment [1] was determined as 0.65 µM. Moreover, the concentration for a half-maximal effect (EC50) in experiment [2], in experiment [3] and in experiment [4] was > 10 µM each time. The inhibition result in experiment [5] was “inactive”.
In experiment [1], `O=C(O)c1ccc(-c2nc(C(=O)c3c(Cl)cccc3C(F)(F)F)n3ccccc23)c(F)c1` showed an IC50 of 0.32 µM. The 50% effective concentration (EC50) in experiment [2], in experiment [3] and in experiment [4] was > 10 µM each time. Moreover, in experiment [5], the inhibition entry is “inactive”.
In experiment [1], `O=C(O)c1ccc(-c2nc(C(=O)c3c(Cl)cccc3C(F)(F)F)n3c2CCCC3)c(F)c1` displayed an IC50 of 0.76 µM. For the same compound, the half-maximal effective concentration (EC50) in experiment [2], in experiment [3] and in experiment [4] was > 10 µM each time. In addition, the inhibition entry in experiment [5] was “inactive”.
For the compound `O=C(O)c1ccc(-c2nc(C(=O)c3c(Cl)cccc3C3CC3)n3c2CCCC3)c(F)c1`, the half-inhibitory concentration (IC50) in experiment [1] was found to be 1.3 µM. For the same compound, the 50% effective concentration (EC50) in experiment [2], in experiment [3] and in experiment [4] was > 10 µM each time. Further, the inhibition entry in experiment [5] is “inactive”.
